Assay results as given in PubChem BioAssay AID1963972 (Molecular Pharmacology Branch, DTP, NCI, 2024).

Tested on: 945468-187-T-J2-PDC spheroids viability
Assay: Anticancer human tumor 945468-187-T-J2-PDC patient-derived rectal carcinoma cell line growth inhibition [PI3K]
Settings: spheroids with HUVEC and MSC; for viability, T/C: stronger effect = lower value
In short: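 Viability of mixed-cell spheroids was determined after exposure to pairwise combinations, one partner being inavolisib, alpelisib, duvelisib or copanlisib. Highest tested concentration matched clinical Cmax where known and 10 microM where not, descending in half-log steps.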

[1] = curve of first compound, second compound 0.00316 µM
[2] = curve of first compound, second compound 0.01 µM
[3] = curve of first compound, second compound 0.0316 µM
[4] = curve of first compound, second compound 0.1 µM
[5] = curve of first compound, second compound 0.316 µM
[6] = curve of first compound, second compound 1 µM
[7] = second compound 0.00316 µM, first compound 0.000316 µM
[8] = second compound 0.00316 µM, first compound 0.001 µM
[9] = second compound 0.00316 µM, first compound 0.00316 µM
[10] = second compound 0.00316 µM, first compound 0.01 µM
[11] = second compound 0.00316 µM, first compound 0.0316 µM
[12] = second compound 0.00316 µM, first compound 0.1 µM
[13] = second compound 0.01 µM, first compound 0.000316 µM
[14] = second compound 0.01 µM, first compound 0.001 µM
[15] = second compound 0.01 µM, first compound 0.00316 µM
[16] = second compound 0.01 µM, first compound 0.01 µM
[17] = second compound 0.01 µM, first compound 0.0316 µM
[18] = second compound 0.01 µM, first compound 0.1 µM
[19] = second compound 0.0316 µM, first compound 0.000316 µM
[20] = second compound 0.0316 µM, first compound 0.001 µM
[21] = second compound 0.0316 µM, first compound 0.00316 µM
[22] = second compound 0.0316 µM, first compound 0.01 µM
[23] = second compound 0.0316 µM, first compound 0.0316 µM
[24] = second compound 0.0316 µM, first compound 0.1 µM
[25] = second compound 0.1 µM, first compound 0.000316 µM
[26] = second compound 0.1 µM, first compound 0.001 µM
[27] = second compound 0.1 µM, first compound 0.00316 µM
[28] = second compound 0.1 µM, first compound 0.01 µM
[29] = second compound 0.1 µM, first compound 0.0316 µM
[30] = second compound 0.1 µM, first compound 0.1 µM
[31] = second compound 0.316 µM, first compound 0.000316 µM
[32] = second compound 0.316 µM, first compound 0.001 µM
[33] = second compound 0.316 µM, first compound 0.00316 µM
[34] = second compound 0.316 µM, first compound 0.01 µM
[35] = second compound 0.316 µM, first compound 0.0316 µM
[36] = second compound 0.316 µM, first compound 0.1 µM
[37] = second compound 1 µM, first compound 0.000316 µM
[38] = second compound 1 µM, first compound 0.001 µM
[39] = second compound 1 µM, first compound 0.00316 µM
[40] = second compound 1 µM, first compound 0.01 µM
[41] = second compound 1 µM, first compound 0.0316 µM
[42] = second compound 1 µM, first compound 0.1 µM
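Further: spheroids exposed to compounds for seven days before reading.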

## Cn1ncnc1[C@H]1c2n[nH]c(=O)c3cc(F)cc(c23)N[C@@H]1c1ccc(F)cc1 + COc1c(OCCCN2CCOCC2)ccc2c3n(c(=NC(=O)c4cnc(N)nc4)nc12)CCN3
[1]
  IC50: > 100 nM
[2]
  IC50: > 100 nM
[3]
  IC50: > 100 nM
[4]
  IC50: > 100 nM
[5]
  IC50: < 0.316 nM
[6]
  IC50: < 0.316 nM
[7]
  viability, T/C: 107%
[8]
  viability, T/C: 114%
[9]
  viability, T/C: 90.7%
[10]
  viability, T/C: 104%
[11]
  viability, T/C: 97.3%
[12]
  viability, T/C: 108%
[13]
  viability, T/C: 105%
[14]
  viability, T/C: 128%
[15]
  viability, T/C: 101%
[16]
  viability, T/C: 84%
[17]
  viability, T/C: 98.4%
[18]
  viability, T/C: 96.8%
[19]
  viability, T/C: 98.7%
[20]
  viability, T/C: 107%
[21]
  viability, T/C: 85.3%
[22]
  viability, T/C: 104%
[23]
  viability, T/C: 95.2%
[24]
  viability, T/C: 88.5%
[25]
  viability, T/C: 93.2%
[26]
  viability, T/C: 75.7%
[27]
  viability, T/C: 83.6%
[28]
  viability, T/C: 81.3%
[29]
  viability, T/C: 84.3%
[30]
  viability, T/C: 88.1%
[31]
  viability, T/C: 34%
[32]
  viability, T/C: 35.2%
[33]
  viability, T/C: 43.5%
[34]
  viability, T/C: 39.3%
[35]
  viability, T/C: 39.3%
[36]
  viability, T/C: 44%
[37]
  viability, T/C: 21%
[38]
  viability, T/C: 19.7%
[39]
  viability, T/C: 23.7%
[40]
  viability, T/C: 22.8%
[41]
  viability, T/C: 20.2%
[42]
  viability, T/C: 20.8%

## Cn1ncc(Cl)c1-c1cc(C(=O)NC(CN)Cc2cccc(F)c2)sc1Cl (stereo not given)
Compound 0.1 µM
  viability, T/C: 90.9% [middle of 4 runs]
Compound 1 µM
  viability, T/C: 84.6% [middle of 4 runs]
Compound 3.16 µM
  viability, T/C: 76.5% [middle of 4 runs]
Curve of compound
  IC50: > 10000 nM

## C#Cc1c(F)ccc2cc(O)cc(-c3ncc4c(N5CC6CCC(C5)N6)nc(OCC56CCCN5CC(F)C6)nc4c3F)c12 (stereo not given) + Cc1nc(NC(=O)N2CCCC2C(N)=O)sc1-c1ccnc(C(C)(C)C(F)(F)F)c1
[3]
  IC50: > 10000 nM
[4]
  IC50: > 10000 nM
[5]
  IC50: > 10000 nM
[6]
  IC50: > 10000 nM
Curve of first compound, second compound 3.16 µM
  IC50: > 10000 nM
Curve of first compound, second compound 10 µM
  IC50: > 10000 nM
[23]
  viability, T/C: 110%
[24]
  viability, T/C: 110%
Second compound 0.0316 µM, first compound 0.316 µM
  viability, T/C: 105%
Second compound 0.0316 µM, first compound 1 µM
  viability, T/C: 103%
Second compound 0.0316 µM, first compound 3.16 µM
  viability, T/C: 135%
Second compound 0.0316 µM, first compound 10 µM
  viability, T/C: 107%
[29]
  viability, T/C: 125%
[30]
  viability, T/C: 114%
Second compound 0.1 µM, first compound 0.316 µM
  viability, T/C: 102%
Second compound 0.1 µM, first compound 1 µM
  viability, T/C: 107%
Second compound 0.1 µM, first compound 3.16 µM
  viability, T/C: 136%
Second compound 0.1 µM, first compound 10 µM
  viability, T/C: 105%
[35]
  viability, T/C: 103%
[36]
  viability, T/C: 100%
Second compound 0.316 µM, first compound 0.316 µM
  viability, T/C: 116%
Second compound 0.316 µM, first compound 1 µM
  viability, T/C: 102%
Second compound 0.316 µM, first compound 3.16 µM
  viability, T/C: 164%
Second compound 0.316 µM, first compound 10 µM
  viability, T/C: 99.1%
[41]
  viability, T/C: 125%
[42]
  viability, T/C: 93.6%
Second compound 1 µM, first compound 0.316 µM
  viability, T/C: 109%
Second compound 1 µM, first compound 1 µM
  viability, T/C: 116%
Second compound 1 µM, first compound 3.16 µM
  viability, T/C: 106%
Second compound 1 µM, first compound 10 µM
  viability, T/C: 90.5%
Second compound 3.16 µM, first compound 0.0316 µM
  viability, T/C: 85.6%
Second compound 3.16 µM, first compound 0.1 µM
  viability, T/C: 85.8%
Second compound 3.16 µM, first compound 0.316 µM
  viability, T/C: 95.4%
Second compound 3.16 µM, first compound 1 µM
  viability, T/C: 94.1%
Second compound 3.16 µM, first compound 3.16 µM
  viability, T/C: 94%
Second compound 3.16 µM, first compound 10 µM
  viability, T/C: 117%
Second compound 10 µM, first compound 0.0316 µM
  viability, T/C: 85.5%
Second compound 10 µM, first compound 0.1 µM
  viability, T/C: 73.2%
Second compound 10 µM, first compound 0.316 µM
  viability, T/C: 99%
Second compound 10 µM, first compound 1 µM
  viability, T/C: 92.6%
Second compound 10 µM, first compound 3.16 µM
  viability, T/C: 77%
Second compound 10 µM, first compound 10 µM
  viability, T/C: 80.9%

## CC(=O)c1c(C)c2cnc(Nc3ccc(N4CCNCC4)cn3)nc2n(C2CCCC2)c1=O + COc1c(OCCCN2CCOCC2)ccc2c3n(c(=NC(=O)c4cnc(N)nc4)nc12)CCN3
[1]
  IC50: > 100 nM
[2]
  IC50: > 100 nM
[3]
  IC50: > 100 nM
[4]
  IC50: > 100 nM
[5]
  IC50: < 0.316 nM
[6]
  IC50: < 0.316 nM
[7]
  viability, T/C: 101%
[8]
  viability, T/C: 96.6%
[9]
  viability, T/C: 110%
[10]
  viability, T/C: 103%
[11]
  viability, T/C: 96.3%
[12]
  viability, T/C: 112%
[13]
  viability, T/C: 135%
[14]
  viability, T/C: 135%
[15]
  viability, T/C: 120%
[16]
  viability, T/C: 108%
[17]
  viability, T/C: 110%
[18]
  viability, T/C: 130%
[19]
  viability, T/C: 115%
[20]
  viability, T/C: 95.4%
[21]
  viability, T/C: 101%
[22]
  viability, T/C: 105%
[23]
  viability, T/C: 118%
[24]
  viability, T/C: 113%
[25]
  viability, T/C: 102%
[26]
  viability, T/C: 101%
[27]
  viability, T/C: 115%
[28]
  viability, T/C: 80%
[29]
  viability, T/C: 85.5%
[30]
  viability, T/C: 89.9%
[31]
  viability, T/C: 38.6%
[32]
  viability, T/C: 36.7%
[33]
  viability, T/C: 45.7%
[34]
  viability, T/C: 40.9%
[35]
  viability, T/C: 36.2%
[36]
  viability, T/C: 37.4%
[37]
  viability, T/C: 24.2%
[38]
  viability, T/C: 21.4%
[39]
  viability, T/C: 28.7%
[40]
  viability, T/C: 21.6%
[41]
  viability, T/C: 22.8%
[42]
  viability, T/C: 18.5%
